Drawing on ChEMBL document CHEMBL1135443, “Acyclic nucleoside analogues as novel inhibitors of human mitochondrial thymidine kinase” (J Med Chem, 2002), this text covers NEA for 7 compounds.

In assay [1] the test system is Thymidine kinase (Herpes simplex virus type 1). Conditions: Human alphaherpesvirus 1.
In assay [2] the target is Thymidine kinase 2, mitochondrial (Homo sapiens) (UniProt O00142).
Thymidine kinase 2, mitochondrial (Homo sapiens), sequence (O00142 whole entry, looked up): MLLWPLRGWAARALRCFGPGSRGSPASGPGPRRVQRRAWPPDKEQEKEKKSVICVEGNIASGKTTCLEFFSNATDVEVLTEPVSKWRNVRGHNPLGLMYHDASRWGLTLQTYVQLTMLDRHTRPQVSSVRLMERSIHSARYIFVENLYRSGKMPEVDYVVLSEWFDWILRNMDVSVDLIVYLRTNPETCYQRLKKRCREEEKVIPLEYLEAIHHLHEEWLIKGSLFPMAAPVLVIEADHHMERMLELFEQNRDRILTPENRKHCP

As to `Nc1nc(O)c2ncn(C/C=C\COC(c3ccccc3)(c3ccccc3)c3ccccc3)c2n1`, the NEA result in assay [1] and in assay [2] was “Not estimated accurately” throughout. For the compound `Cc1cn(C/C=C\COC(c2ccccc2)(c2ccccc2)c2ccccc2)c(=O)n(C)c1=O`, the NEA entry in assay [1] and in assay [2] was “Not estimated accurately” each time.

For `Cc1cn(CC#CCOC(c2ccccc2)(c2ccccc2)c2ccccc2)c(=O)[nH]c1=O`, the NEA result in assay [2] is on record as “Not estimated accurately”. In the case of `Cc1cn(C/C=C\CO)c(=O)[nH]c1=O`, the NEA result in assay [1] and in assay [2] was “Not estimated accurately” each time.

As for `COc1ccc(C(OC[C@H]2O[C@@H](n3cc(C)c(=O)[nH]c3=O)C[C@@H]2O)(c2ccccc2)c2ccc(OC)cc2)cc1`, the NEA entry in assay [2] was “Not estimated accurately”. For the compound `Cc1cn(C/C=C\COC(c2ccccc2)(c2ccccc2)c2ccccc2)c(=O)nc1N`, the NEA entry in assay [1] and in assay [2] was “Not estimated accurately” throughout. In the case of `Cc1cn(Cc2ccccc2COC(c2ccccc2)(c2ccccc2)c2ccccc2)c(=O)[nH]c1=O`, the NEA result in assay [1] and in assay [2] was “Not estimated accurately” throughout.
